Source: patent publication US20090156642A1, “5-Membered heterocyclic compound” (Takeda Pharmaceutical Company Limited, priority 2007, published 2009)
pIC50: −log10 of the molar value. Structures can show the parent of a compound that is named as a salt.

What follows are molecules tested against T1, proton, potassium-adenosine triphosphatase (H+,K+-ATPase) (Sus scrofa, UniProt P19156) (assay: Proton potassium-adenosine triphosphatase (H+,K+-ATPase) inhibitory activity test). Details: swine gastric mucous membrane microsomal fraction, pH 6.5, 37° C., 10 mmol/L potassium chloride.
T1 construct: a gastric mucous membrane microsomal fraction was prepared from the stomach of swine
T1 sequence (P19156 2-1034): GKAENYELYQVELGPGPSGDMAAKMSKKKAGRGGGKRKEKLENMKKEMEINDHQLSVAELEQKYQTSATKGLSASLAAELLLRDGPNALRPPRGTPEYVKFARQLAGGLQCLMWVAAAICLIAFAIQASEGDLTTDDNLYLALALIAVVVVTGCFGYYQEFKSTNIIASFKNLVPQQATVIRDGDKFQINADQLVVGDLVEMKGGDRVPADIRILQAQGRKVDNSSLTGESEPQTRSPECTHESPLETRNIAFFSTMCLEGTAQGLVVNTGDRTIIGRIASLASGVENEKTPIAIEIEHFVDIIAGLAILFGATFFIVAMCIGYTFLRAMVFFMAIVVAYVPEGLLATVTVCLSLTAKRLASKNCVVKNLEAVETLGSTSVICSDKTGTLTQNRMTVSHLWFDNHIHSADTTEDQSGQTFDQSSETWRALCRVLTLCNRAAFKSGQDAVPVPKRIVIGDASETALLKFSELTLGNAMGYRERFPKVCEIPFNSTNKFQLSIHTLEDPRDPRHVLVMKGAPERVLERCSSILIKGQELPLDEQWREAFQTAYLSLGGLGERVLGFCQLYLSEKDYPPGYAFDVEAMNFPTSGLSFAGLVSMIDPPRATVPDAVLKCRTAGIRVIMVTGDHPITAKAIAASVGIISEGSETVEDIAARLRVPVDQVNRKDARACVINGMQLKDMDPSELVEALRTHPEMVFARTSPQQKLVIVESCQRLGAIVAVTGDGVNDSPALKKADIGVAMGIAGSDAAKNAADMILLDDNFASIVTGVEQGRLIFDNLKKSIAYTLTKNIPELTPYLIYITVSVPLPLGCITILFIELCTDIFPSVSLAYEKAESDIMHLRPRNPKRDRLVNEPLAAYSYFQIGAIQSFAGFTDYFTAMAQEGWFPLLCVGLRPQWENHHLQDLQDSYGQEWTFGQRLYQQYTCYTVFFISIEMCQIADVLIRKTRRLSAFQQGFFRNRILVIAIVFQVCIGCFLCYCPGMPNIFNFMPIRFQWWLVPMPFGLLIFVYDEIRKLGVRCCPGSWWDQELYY
T1 sequence (P18434 whole entry partner): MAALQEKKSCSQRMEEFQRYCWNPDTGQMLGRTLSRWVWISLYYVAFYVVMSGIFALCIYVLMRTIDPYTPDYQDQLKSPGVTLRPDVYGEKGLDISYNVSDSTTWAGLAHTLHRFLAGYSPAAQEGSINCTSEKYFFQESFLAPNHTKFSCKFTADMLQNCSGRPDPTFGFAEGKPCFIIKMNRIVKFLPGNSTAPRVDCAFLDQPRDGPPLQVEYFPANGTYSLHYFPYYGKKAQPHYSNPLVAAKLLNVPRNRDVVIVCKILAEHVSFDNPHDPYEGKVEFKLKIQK
Type: biochemical
Method: Proton Potassium-Adenosine Triphosphatase (H^+,K^+-ATPase) Inhibitory Activity Test
According to the method [Biochim. Biophys. Acta, 728, 31 (1983)] of Wallmark et al., a gastric mucous membrane microsomal fraction was prepared from the stomach of swine. First, the stomach was removed, washed with tap water, and immersed in 3 mol/L brine, and the surface of the mucous membrane was wiped with a paper towel. The gastric mucous membrane was detached, chopped, and homogenized in a 0.25 mol/L saccharose solution (pH 6.8) containing 1 mmol/L EDTA and 10 mmol/L tris-hydrochloric acid using polytron (Kinematica). The obtained homogenate was centrifuged at 20,000×g for 30 min and the supernatant was centrifuged at 100,000×g for 90 min. The precipitate was suspended in 0.25 mol/L saccharose solution, the suspension was superimposed on a 0.25 mol/L saccharose solution containing 7.5% Ficoll, and centrifuged at 100,000×g for 5 hr. The fraction containing the interface between the both layers was recovered, and centrifugally washed with 0.25 mol/L saccharose solution.
The obtained microsomal fraction was used as a proton, potassium-adenosine triphosphatase standard product.
To 40 μL of a 50 mmol/L HEPES-tris buffer (5 mmol/L magnesium chloride, 10 mmol/L potassium chloride, 10 μmol/L valinomycin, pH=6.5) containing 2.5 μg/mL (based on the protein concentration) of the enzyme standard product was added a test compound (5 μL) dissolved in a 10% aqueous dimethyl sulfoxide solution, and the mixture was incubated at 37° C. for 30 min. The enzyme reaction was started by adding 5 μL of a 2 mmol/L adenosine triphosphate tris salt solution (50 mmol/L HEPES-tris buffer (5 mmol/L magnesium chloride, pH 6.5)). The enzyme reaction was carried out at 37° C. for 20 min, and 15 μL of a malachite green solution (0.12% malachite green solution in sulfuric acid (2.5 mol/L), 7.5% ammonium molybdate and 11% Tween 20 were mixed at a ratio of 100:25:2) was added to quench the reaction. After allowing to stand at room temperature for 15 min, the resulting reaction product of inorganic phosphorus with malachite green was colorimetrically determined at a wavelength of 610 nm. In addition, the amount of the inorganic phosphoric acid in the reaction solution free of potassium chloride was measured in the same manner, which was subtracted from the inorganic phosphoric acid amount in the presence of potassium chloride to determine the proton, potassium-adenosine triphosphatase activity. The inhibitory rate (%) was determined from the activity value of the control and the activity values of various concentrations of the test compound, and the 50% inhibitory concentration (IC50) of the proton, potassium-adenosine triphosphatase was determined.
For CNCc1cc(-c2cccnc2F)c(S(=O)(=O)c2ccccc2)s1 [Example 2, 1-[4-(2-fluoropyridin-3-yl)-5-(phenylsulfonyl)-2-thienyl]-N-methylmethanamine hydrochloride], the pIC50 was 7.49. CNCc1cc(-c2ccccc2F)c(S(=O)(=O)c2cccc(OC)c2)s1 [Example 4, 1-{4-(2-fluorophenyl)-5-[(3-methoxyphenyl)sulfonyl]-2-thienyl}-N-methylmethanamine fumarate] gave a pIC50 of 7.19. Molecule CNCc1nc(-c2ccccc2F)c(S(=O)(=O)c2cccc(OC)c2)s1 [Example 13, 1-{4-(2-fluorophenyl)-5-[(3-methoxyphenyl)sulfonyl]-1,3-thiazol-2-yl}-N-methylmethanamine hydrochloride] has a pIC50 of 7.34. In the case of CNCc1cn(S(=O)(=O)c2cccs2)c(-c2ccccc2F)n1 [Example 18, 1-[2-(2-fluorophenyl)-1-(2-thienylsulfonyl)-1H-imidazol-4-yl]-N-methylmethanamine fumarate], the pIC50 was 7.19. Work on CNCc1cc(-c2ccccc2F)c(S(=O)(=O)c2ccccc2)s1 [Example 19, 1-[4-(2-fluorophenyl)-5-(phenylsulfonyl)thiophen-2-yl]-N-methylmethanamine hydrochloride] yielded a pIC50 of 7.06. CNCc1cc(-c2cccnc2F)c(S(=O)(=O)c2cccnc2)s1 [Example 48, 1-[4-(2-fluoropyridin-3-yl)-5-(pyridin-3-ylsulfonyl)thiophen-2-yl]-N-methylmethanamine] was tested, and the pIC50 was 6.62. Work on CNCc1nc(-c2ccccc2F)c(S(=O)(=O)c2cccnc2)s1 [Example 56, 1-[4-(2-fluorophenyl)-5-(pyridin-3-ylsulfonyl)-1,3-thiazol-2-yl]-N-methylmethanamine fumarate] yielded a pIC50 of 6.62. Work on CNCc1nc(-c2cccnc2F)c(S(=O)(=O)c2cccnc2)s1 [Example 60, 1-[4-(2-fluoropyridin-3-yl)-5-(pyridin-3-ylsulfonyl)-1,3-thiazol-2-yl]-N-methylmethanamine] yielded a pIC50 of 6.51. Molecule CNCc1cc(S(=O)(=O)c2cccnc2)c(-c2cccnc2F)s1 [Example 65, 1-[5-(2-fluoropyridin-3-yl)-4-(pyridin-3-ylsulfonyl)thiophen-2-yl]-N-methylmethanamine] has a pIC50 of 6.60. CNCc1cn(S(=O)(=O)c2ccccc2)c(-c2ccccc2F)n1 [Example 67, 1-[2-(2-fluorophenyl)-1-(phenylsulfonyl)-1H-imidazol-4-yl]-N-methylmethanamine fumarate] was tested, and the pIC50 was 7.55. CNCc1cc(S(=O)(=O)c2ccccc2)n(-c2cccnc2F)n1 [Example 79, 1-[1-(2-fluoropyridin-3-yl)-5-(phenylsulfonyl)-1H-pyrazol-3-yl]-N-methylmethanamine] was tested, and the pIC50 was 6.72. CNCc1cc(S(=O)(=O)c2cccnc2)n(-c2ccccc2F)n1 [Example 81, 1-[1-(2-fluorophenyl)-5-(pyridin-3-ylsulfonyl)-1H-pyrazol-3-yl]-N-methylmethanamine] gave a pIC50 of 6.89. With CNCc1cc(S(=O)(=O)c2cccc(C#N)c2)n(-c2ccccc2Cl)n1 [Example 86, 3-({1-(2-chlorophenyl)-3-[(methylamino)methyl]-1H-pyrazol-5-yl}sulfonyl)benzonitrile hydrochloride] the pIC50 was 7.08. In the case of CNCc1cc(S(=O)(=O)c2cccnc2)n(-c2ccccc2Cl)n1 [Example 87, 1-[1-(2-chlorophenyl)-5-(pyridin-3-ylsulfonyl)-1H-pyrazol-3-yl]-N-methylmethanamine], the pIC50 was 7.07. In the case of CNCc1cc(S(=O)(=O)c2ccc(C)nc2)n(-c2ccccc2Cl)n1 [Example 89, 1-{1-(2-chlorophenyl)-5-[(6-methylpyridin-3-yl)sulfonyl]-1H-pyrazol-3-yl}-N-methylmethanamine], the pIC50 was 6.96. CNCc1cc(S(=O)(=O)c2cccnc2)n(-c2cccc(F)c2F)n1 [Example 98, 1-[1-(2,3-difluorophenyl)-5-(pyridin-3-ylsulfonyl)-1H-pyrazol-3-yl]-N-methylmethanamine] gave a pIC50 of 6.66. CNCc1cc(S(=O)(=O)c2ccc(C)nc2)n(-c2cccc(F)c2F)n1 [Example 99, 1-{1-(2,3-difluorophenyl)-5-[(6-methylpyridin-3-yl)sulfonyl]-1H-pyrazol-3-yl}-N-methylmethanamine] showed a pIC50 of 7.12. Molecule CNCc1cc(S(=O)(=O)c2cccnc2)n(-c2cccc(F)c2Cl)n1 [Example 113, 1-[1-(2-chloro-3-fluorophenyl)-5-(pyridin-3-ylsulfonyl)-1H-pyrazol-3-yl]-N-methylmethanamine fumarate] has a pIC50 of 6.74.
